The values that follow come from patent publication EP0278661A1, “A thiophosphoric acid ester as an insecticide, nematocide and acaricide” (priority 1987, dated 1988).

The test system of data set [1] is southern corn rootworm (Diabrotica undecimpunctata howardi BABER). Kind of data set: Soil treatment test against southern corn rootworm larvae (mortality). The data set is classed as in vivo. Conditions: 48 h, 1 ppm active ingredient in soil, third instar larvae, two days after liberation. The method, then:
The emulsifiable concentrate of each test compound formulated according to Formulation example 1 was diluted with water, and 5 ml of the resulting aqueous dilute liquor was mixed with 50 g of soil to make the concentration of active ingredient in soil 1 ppm. The soil was then placed in a polyethylene cup of 5.6 cm in diameter and 5.8 cm high, and two pieces of corn having roots of 2 to 3 cm long were planted. At the same time, ten third instar larvae of southern corn rootworm (Diabrotica undecimpunctata howardi BABER) were liberated in the cup. Two days after liberation, the number of the dead and alive larvae was counted to obtain mortality (%).

The nature of data set [2]: Acute oral toxicity in mouse (mortality). Conditions: in vivo; oral (stomach sound), 100 mg/kg, ICR mouse, observed for 7 days, 5 head per group; read-out: Mortality (%) at the dose of 100 mg/kg. How it is done: After fasting of about 24 hours, ICR series mouse was weighed by an electronic balance. A stomack sound for mouse was attached to a syringe filled with test solution, the syringe end was slid to innermost of the mouse's throat to insert it to the stomack, and a definite amount of the test solution was injected. 4 Hours after the administration, a bait and water were given to the mouse for 7 days to observe a mortality (5 head per group).

Data set [3] relates to root-knot nematodes (Meloidogyne sp.). Nature of the data set: Soil treatment test against root-knot nematodes on tomato plants (degree of root-knot). Conditions: observed three weeks after planting. Also on record: key: -: No settlement; - to +: Not more than 10% as compared with untreated plot; +: 10% - 40% as compared with untreated plot; ++: 40% - 80% as compared with untreated plot; +++: The same as or more than untreated plot. In kind it is in vivo. The method, then: The emulsifiable concentrate of each test compound formulated according to Formulation example 1 was diluted with water, and 5 ml of the resulting aqueous dilute liquor was mixed with 600 g of soil contaminated with root-knot nematodes (Meloidogyne sp.) to make the concentration of active ingredient in soil 4 or 1 ppm. The soil was placed in a polyethylene cup of 12 cm in diameter and 8 cm in height, and three tomato plants of 3 to 4 leaf stage were planted.

In data set [4] the test system is carmine spider mite (Tetranychus cinnabarinus). Kind of data set: Spray and soil drench test against carmine spider mite on kidney bean (degree of damage). The following applies: 500 ppm spray plus soil drench, examined after 8 days. Also on record: key: -: Little damage is observed.; +: Slight damage is observed.; ++: Same damage as in the untreated plot is observed. In kind it is in vivo. How it is done: Female adults of carmine spider mite (Tetranychus cinnabarinus) were made parasitic on the leaves of potted kidney bean in a primary leaf stage, at a rate of 10 adults per leaf, which had elapsed seven days after sowing, and stored in a constant-temperature room kept at 25°C. After six days, 15 ml of a dilute solution, previously prepared by diluting the emulsifiable concentrate of the following test compounds obtained according to Formulation example 1 with water so that the active ingredient concentration was 500 ppm, was sprayed thereon by means of a turn table. At the same time, soil drench was carried out with 2 ml of the dilute solution. After 8 days, the degree of damage of each kidney bean by mites was examined.
The degree of damage was classified into three stages, -, + and ++. - : Little damage is observed. + : Slight damage is observed. ++ : Same damage as in the untreated plot is observed.

Where [5] appears, read: concentration in the soil 1 ppm.
Where [6] appears, read: concentration in the soil 4 ppm.

In the case of `CCCSP(=O)(OCC)Oc1ccccc1` (stereo not drawn) [(A)], the mortality at 1 ppm in data set [1] came out at 70%. Besides, the mortality at 168 h in data set [2] was found to be 100%.
Take `CCOP(=O)(Oc1ccccc1)SC(C)(C)C` (stereo not drawn) [Present compound, S-tert-butyl O-ethyl O-phenyl phosphorothiolate]: the Extent of settlement result is “- to + (Not more than 10% as compared with untreated plot)” in data set [3] (setting [5]) and “-” in data set [3] (setting [6]). The mortality at 1 ppm in data set [1] amounted to 100%. Further, in data set [4], the Degree of damage result was “-”. Besides, the mortality at 168 h in data set [2] turned out to be 0%.
Consider `Cc1cc(Cl)ccc1/N=C/N(C)C` [Chlorodimeform], for which, in data set [4], the Degree of damage result is given as “+”.
`CCOP(=O)(Oc1ccccc1)SC(C)C` (stereo not drawn) [(B)]: the Extent of settlement result in data set [3] (setting [5]) is “+++”; in data set [3] (setting [6]), “+ (10% - 40% as compared with untreated plot)”. In addition, the mortality at 1 ppm in data set [1] was 0%. The mortality at 168 h in data set [2] came to 100%.
As to `CCOP(=O)(Oc1ccccc1)SC(C)CC` (stereo not drawn) [(C)], the Extent of settlement entry in data set [3] (setting [5]) is listed as “+++”; in data set [3] (setting [6]) it was “- to + (Not more than 10% as compared with untreated plot)”. In addition, the mortality at 168 h in data set [2] turned out to be 100%.
